In patent US6797721B2, “Phorboxazole derivatives for treating cancer” (Parker Hughes Institute, priority 1999, dated 2004):

Key:
[1] = test system: NALM-6 human B-lineage acute lymphoblastic leukemia cells; experiment: MTT cytotoxicity assay, NALM-6; type: cell-based; details: NALM-6 (leukemia, ALL), 24-36 hours, read-out: IC50 [MTT]
Experimental: The cytotoxicity assay of synthetic Phorboxazole A and various derivative compounds against human tumor cells was performed using the MTT (3-[4,5-dimethylthiazol-2-yl]-2,5-diphenyl tetrazolium bromide) assay (Boehringer Mannheim Corp., Indianapolis, Ind.). Briefly, exponentially growing brain tumor cells were seeded into a 96-well plate at a density of 2.5×10^4 cells/well and incubated for 36 hours at 37° C. prior to drug exposure. On the day of treatment, culture medium was carefully aspirated from the wells and replaced with fresh medium containing the various phorboxazole A derivative compounds as well as the tyrosine kinase inhibitory isoflavone genistein (GEN) at concentrations ranging from 0.1 to 250 μM. Triplicate wells were used for each treatment.
Human glioblastoma cells U373 (brain cancer), human B-lineage acute lymphoblastic leukemia cells NALM-6, and human breast cancer cells BT-20 were obtained from American Type Culture Collection (Rockville, Md.) and maintained as a continuous cell line in Dulbecco's modified Eagles's medium supplemented with 10% fetal bovine serum and antibiotics.
The cells were incubated with the various compounds for 24-36 hours at 37° C. in a humidified 5% CO2 atmosphere. To each well, 10 μl of MTT (0.5 mg/ml final concentration) was added and the plates were incubated at 37° C. for 4 hours to allow MTT to form formazan crystals by reacting with metabolically active cells. The fonnazan crystals were solubilized overnight at 37° C. in a solution containing 10% SDS in 0.01 M HCl. The absorbance of each well was measured in a microplate reader (Labsystems) at 540 nm and a reference wavelength of 690 nm. To translate the OD540 values into the number of live cells in each well, the OD540 values were compared to those on standard OD540-versus-cell number curves generated for each cell line. The percent survival was calculated using the formula: [formula]
The IC50 values were calculated by non-linear regression analysis.

[2] = test system: human breast cancer cell line BT-20; experiment: In situ detection of apoptosis (nick-end-labeling, confocal microscopy); type: cell-based; details: final concentration of 100 μM, 24 hours
Experimental: The synthetic Phorboxazole A and the synthetic analogs were also assayed for apoptosis-inducing activity. Assay for apoptosis was performed by the in situ nick-end-labeling method using an ApopTag in situ detection kit (Oncor, Gaithersburg, Md.) according to the manufacturer's reconmmendations. Immunofluorescence was used to examine the morphologic features of human breast cancer cell line BT-20 (American Type Culture Collection Rockville, Md.) treated with the novel phorboxazole A derivatives of the present invention.
Cells were trypsinized from rapidly growing tissue culture flasks and seeded onto sterile 22 mm^2 coverslips in 6-well culture plates. Cells on coverslips were returned to the incubator for 24 hours prior to treatment. The phorboxazole A derivatives were added to the cells from a stock solution made in DMSO to a final concentration of 100 μM. Final DMSO concentration were kept at 0.1% in both test samples and controls. Cells were returned to a 37° C. incubation for 24 hours before further processing. At 24 hours, coverslips were fixed in −20° C. methanol for 15 minutes followed by a 15 minute incubation in phosphate buffered saline +0.1% Triton X-100 (PBS-Tx). Coverslips were then incubated with a monoclonal antibody against α-tubulin (Sigma Chemical Co., St. Louis, Mo.) at a dilution of 1:1000 for 40 minutes in a humidified chamber at 37° C. Coverslips were washed for 15 minutes in PBS-Tx followed by a 40 minute incubation with goat anti-mouse IgG antibody conjugated to FITC (Amersham Corp., Arlington Heights, Ill.). The coverslips were again rinsed in PBS-Tx and incubated with 5 μM TOTO-3 (Molecular Probes, Eugene, Oreg.) for 20 minutes to label the nuclear DNA. Coverslips were immediately inverted onto slides in Vectashield (Vector Labs, Burlingame) to prevent photobleaching, sealed with nail varnish and stored at 4° C.
Slides were examined using a Bio-Rad MRC-1024 Laser Scanning Confocal Microscope mounted on a Nikon Eclipse E800 upright microscope with high numerical aperture objectives. […]

## C=C1C[C@@H]2C[C@@H]3C[C@@H](O)C[C@@H](O3)c3coc(n3)/C=C/C[C@H]3O[C@@H](/C(C)=C/c4coc(C[C@]5(O)C[C@H](OC)C[C@H]([C@H](O)/C=C(C)/C=C/[C@@H](C/C=C/Br)OC)O5)n4)[C@H](C)[C@@H](OC(=O)/C=C\C[C@@H](C1)O2)[C@H]3C [Compound 1, Phorboxazole A]
[1]
  IC50: 1.7 nM
[2]
  Apoptosis-inducing activity: apoptotic activity
